Results as given in the supplement of paper PMC11451515.

How the values were obtained:
Details in all cases: 48 h
NOMO1 [1] = assay: cell viability relative to DMSO control; higher = less cytotoxic
Method in brief: (§1)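 Viability, reported as a per-plate percentage of DMSO wells with cell-free wells as background, came from CellTiter-Glo One luminescence. Reading took place after 48 h at 37°C. Before that, NOMO1 or SEM (500 cells/well) or P12-Ichikawa (1000 cells/well) leukemia cells, adapted for at least four passages in each medium, were seeded in 1536-well plates (5 μl) and pin-dosed with library compounds in DMSO, 47 μM to 0.79 nM over 11 threefold points.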

P12-Ichikawa [2] = assay: AUC of viability dose-response curve (% viability x log10 dose units); higher = less sensitive
Method in brief: (§2)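 Viability of medium-adapted leukemia cells was measured by CellTiter-Glo One luminescence after 48 h at 37°C with library compounds in DMSO. Doses were 11 threefold steps from 47 μM to 0.79 nM, in 1536-well plates at 500 or 1000 cells/well. Signals were normalised per plate to DMSO and cell-free wells and fitted with a four-parameter log-logistic model on log10 dose. Area under the curve was integrated by trapezoidal rule, with curves exceeding full viability scaled and failed quality-control curves removed.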

SEM cells [3] = assay: as above
Method in brief: as §2

NOMO1 [4] = assay: as above
Method in brief: as §2

P12-Ichikawa [5] = assay: cell viability relative to DMSO control; higher = less cytotoxic
Method in brief: as §1

SEM cells [6] = assay: as above
Method in brief: as §1

C1=C/COCc2cc(ccc2OCCN2CCCC2)Nc2nccc(n2)-c2cccc(c2)OCC/1
NOMO1 [1], HPLM + 10% dialyzed FBS
Details	cell viability [%]
0.000781 µM	20.8
0.00234 µM	84.8
0.00702 µM	123
0.0211 µM	133
0.0632 µM	161
0.19 µM	130
0.569 µM	124
1.71 µM	94.7
5.12 µM	63.2
15.4 µM	7.96
46.1 µM	5.7

AUC of viability dose-response curve
Details	HPLM + 10% dialyzed FBS	RPMI 5 mM glucose + 10% FBS	RPMI 5 mM glucose + 10% dialyzed FBS
P12-Ichikawa [2]	409	415	406
SEM cells [3]	354	369	350

OC[C@H]1O[C@@H](OCCc2ccc(O)cc2)[C@H](O)[C@@H](O)[C@@H]1O
AUC of viability dose-response curve
Details	NOMO1 [4]	P12-Ichikawa [2]	SEM cells [3]
HPLM + 10% dialyzed FBS	459	435	447
RPMI 5 mM glucose + 10% FBS	458	456	432
RPMI 5 mM glucose + 10% dialyzed FBS	464	461	419

Cc1coc2c1C(=O)C(=O)c1c-2ccc2c(C)cccc12
cell viability [%]
Details	NOMO1 [1]	P12-Ichikawa [5]	SEM cells [6]
RPMI 5 mM glucose + 10% FBS, 0.000781 µM	126	120	91.4
RPMI 5 mM glucose + 10% FBS, 0.00234 µM	113	123	79.7
RPMI 5 mM glucose + 10% FBS, 0.00702 µM	125	107	107
RPMI 5 mM glucose + 10% FBS, 0.0211 µM	110	112	12.8
RPMI 5 mM glucose + 10% FBS, 0.0632 µM	112	128	91.3
RPMI 5 mM glucose + 10% FBS, 0.19 µM	128	120	80.1
RPMI 5 mM glucose + 10% FBS, 0.569 µM	118	114	90.3
RPMI 5 mM glucose + 10% FBS, 1.71 µM	114	123	78
RPMI 5 mM glucose + 10% FBS, 5.12 µM	89.4	111	72.8
RPMI 5 mM glucose + 10% FBS, 15.4 µM	103	121	54
RPMI 5 mM glucose + 10% FBS, 46.1 µM	91.2	115	48.6
RPMI 5 mM glucose + 10% dialyzed FBS, 0.000781 µM	116	125	112
RPMI 5 mM glucose + 10% dialyzed FBS, 0.00234 µM	111	116	117
RPMI 5 mM glucose + 10% dialyzed FBS, 0.00702 µM	111	124	135
RPMI 5 mM glucose + 10% dialyzed FBS, 0.0211 µM	113	117	19.3
RPMI 5 mM glucose + 10% dialyzed FBS, 0.0632 µM	117	116	112
RPMI 5 mM glucose + 10% dialyzed FBS, 0.19 µM	108	112	115
RPMI 5 mM glucose + 10% dialyzed FBS, 0.569 µM	106	117	98
RPMI 5 mM glucose + 10% dialyzed FBS, 1.71 µM	130	109	102
RPMI 5 mM glucose + 10% dialyzed FBS, 5.12 µM	97.7	109	106
RPMI 5 mM glucose + 10% dialyzed FBS, 15.4 µM	105	103	86.4
RPMI 5 mM glucose + 10% dialyzed FBS, 46.1 µM	106	108	75.3

AUC of viability dose-response curve
Details	HPLM + 10% dialyzed FBS	RPMI 5 mM glucose + 10% FBS	RPMI 5 mM glucose + 10% dialyzed FBS
NOMO1 [4]	443	451	460
P12-Ichikawa [2]	454	476	446

COc1ccc2cc([C@H](C)C(=O)O)ccc2c1
AUC of viability dose-response curve
Details	NOMO1 [4]	P12-Ichikawa [2]	SEM cells [3]
HPLM + 10% dialyzed FBS	465	448	412
RPMI 5 mM glucose + 10% FBS	476	469	401
RPMI 5 mM glucose + 10% dialyzed FBS	460	464	410

COCC1(CO)C(=O)C2CCN1CC2 (stereo not given)
cell viability [%]
Details	NOMO1 [1]	P12-Ichikawa [5]	SEM cells [6]
HPLM + 10% dialyzed FBS, 0.000781 µM	116	90.6	76.2
HPLM + 10% dialyzed FBS, 0.00234 µM	106	103	81.7
HPLM + 10% dialyzed FBS, 0.00702 µM	103	105	112
HPLM + 10% dialyzed FBS, 0.0211 µM	123	112	93.8
HPLM + 10% dialyzed FBS, 0.0632 µM	104	108	96.3
HPLM + 10% dialyzed FBS, 0.19 µM	121	109	104
HPLM + 10% dialyzed FBS, 0.569 µM	92.4	85.3	4.05
HPLM + 10% dialyzed FBS, 1.71 µM	130	103	73.6
HPLM + 10% dialyzed FBS, 5.12 µM	105	81.9	87.1
HPLM + 10% dialyzed FBS, 15.4 µM	60.1	37.7	71
HPLM + 10% dialyzed FBS, 46.1 µM	31.7	4.42	10.3
RPMI 5 mM glucose + 10% FBS, 0.000781 µM	91.9	92.7	102
RPMI 5 mM glucose + 10% FBS, 0.00234 µM	95.4	109	105
RPMI 5 mM glucose + 10% FBS, 0.00702 µM	102	109	137
RPMI 5 mM glucose + 10% FBS, 0.0211 µM	106	110	134
RPMI 5 mM glucose + 10% FBS, 0.0632 µM	107	106	137
RPMI 5 mM glucose + 10% FBS, 0.19 µM	104	117	144
RPMI 5 mM glucose + 10% FBS, 0.569 µM	103	95.2	3.64
RPMI 5 mM glucose + 10% FBS, 1.71 µM	100	104	111
RPMI 5 mM glucose + 10% FBS, 5.12 µM	111	77.8	99.3
RPMI 5 mM glucose + 10% FBS, 15.4 µM	79	53.6	77.2
RPMI 5 mM glucose + 10% FBS, 46.1 µM	18.1	6.98	5.79
RPMI 5 mM glucose + 10% dialyzed FBS, 0.000781 µM	93.8	103	70.2
RPMI 5 mM glucose + 10% dialyzed FBS, 0.00234 µM	110	104	85.2
RPMI 5 mM glucose + 10% dialyzed FBS, 0.00702 µM	94.6	109	118
RPMI 5 mM glucose + 10% dialyzed FBS, 0.0211 µM	98.8	115	105
RPMI 5 mM glucose + 10% dialyzed FBS, 0.0632 µM	115	107	124
RPMI 5 mM glucose + 10% dialyzed FBS, 0.19 µM	108	112	116
RPMI 5 mM glucose + 10% dialyzed FBS, 0.569 µM	90.9	96.4	3.95
RPMI 5 mM glucose + 10% dialyzed FBS, 1.71 µM	94.6	101	90.6
RPMI 5 mM glucose + 10% dialyzed FBS, 5.12 µM	104	81.8	103
RPMI 5 mM glucose + 10% dialyzed FBS, 15.4 µM	94.8	64.2	61.8
RPMI 5 mM glucose + 10% dialyzed FBS, 46.1 µM	50.2	23	16.9

AUC of viability dose-response curve
Details	HPLM + 10% dialyzed FBS	RPMI 5 mM glucose + 10% FBS	RPMI 5 mM glucose + 10% dialyzed FBS
NOMO1 [4]	435	446	462
P12-Ichikawa [2]	413	414	421

NC/1=N/C(=O)C2=C(N1)[N](C=N2)[C@@H]3C[C@H](O)[C@@H](CO)C3=C
AUC of viability dose-response curve
Details	NOMO1 [4]	P12-Ichikawa [2]	SEM cells [3]
HPLM + 10% dialyzed FBS	385	351	248
RPMI 5 mM glucose + 10% FBS	423	342	272
RPMI 5 mM glucose + 10% dialyzed FBS	378	331	200

NC(=O)c1cccnc1
AUC of viability dose-response curve
Details	NOMO1 [4]	P12-Ichikawa [2]	SEM cells [3]
HPLM + 10% dialyzed FBS	438	451	448
RPMI 5 mM glucose + 10% FBS	464	466	449
RPMI 5 mM glucose + 10% dialyzed FBS	409	466	457
